We go through one compound from patent US8338423B2, “Compositions for the treatment of hyperphenylalaninemia” (Universidad de Zaragoza, priority 2007, dated 2012).

The subject of one assay is Pah-mRNA. The assay can be described thus: Pah-mRNA expression in mouse liver by quantitative real-time PCR. Type of assay: in vivo. To be noted: treated mice compared to controls, 10 days oral. The procedure: Animal experiments were performed by Beat Töny (University of Zurich Children's Hospital). 25 μl/day of 10% DMSO (Group 1, control) or the solutions of Compound 11 (Group 2) or Compound 13 (Group […]) were administered orally for 10 days to young adult C57BI/6 mice (all females) exactly 12 weeks old and with weight between 19 to 23 g were in each group, i.e. in Group 2 and 3 animals were given about 5.9 mg/kg/day. Five animals were treated in each group, and no weight change was experienced upon treatment, i.e. <5% change between start and end. Animals were sacrificed at day 10 of treatment, and their livers were sectioned in two frozen immediately in liquid nitrogen, then the frozen half-livers were sent to the Department of Biomedicine, University of Bergen in dry ice. […]
The concentration of soluble protein was about 35 mg/ml of liver extract, similar in each group. The hepatic PAH response to oral supplementation of DMSO and of Compounds 11, 13 in 10% DMSO was analyzed b determining: • i) PAH activity, as described, after removal of free amino acids and contaminants of low molecular weight by using Zebra™ Desalt Spin columns(Pierce). • ii) Pah-mRNA expression by quantitative real-time PCR analysis, performed as reported
(In general: In qPCR the cycle at which signal appears reflects the starting amount.)

In assay [1] the test system is PAH protein expressed in A293 cells. The assay can be described thus: Immunoreactive PAH protein (Western blot) in transfected A293 cells. It is filed as cell-based, human. The note with it: 40 μM compound, 24 h (FIG. 4B). The procedure: Human embryonic kidney cells (A293; purchased from Invitrogen) were grown in Dulbecco's Modified Eagle's Medium (DMEM) containing 4.5 g/l glucose, 10% (v/v) fetal calf serum, 2 mM L-glutamine, 100 i.u./ml penicillin, 100 μg/ml streptomycin and 0.25 mg/ml G-418. A293 cells were transiently transfected with 1 μg of pcDNA3-PAH expression vector (wt or mutant PAH constructs), using the lipofectamine system (Gibco, Invitrogen) as described by the manufacturer. Pharmacological chaperones were added after 5 h of transfection (final concentration 40 μM ligand in DMSO 1%), incubated for 24 h and cells were then harvested and stored at −80° C. […]
Western blot analyses were performed after SDS-PAGE (10% acrylamide) using as primary antibody a monoclonal mouse ant-human PAH (Chemicon, Australia) and as secondary antibody a goat anti-mouse HRP conjugate (Bio-Rad, US). Detection was performed using a chemiluminiscence method (ECL; Amersham Biosciences) and quantified an a Fluor-S™ Multilmager (Bio-Rad, US) using Quantify one v. […]
After transfection of A293 cells with constructs carrying wt-PAH and PKU mutants cDNA, the cells were incubated for 24 h in the presence or absence of 40 μM of hit compounds 11 and 13. Cell were harvested and immunoreactive PAH protein and PAH activity were measured in soluble cell extracts. […]

For `Nc1c(-c2ccc3ccccc3n2)c2ccc([N+](=O)[O-])cc2c(=O)n1Cc1ccccc1` [Compound 11, 3-amino-2-benzyl-7-nitro-4-(2-quinolyl)-1,2-dihydroisoquinolin-1-one], the Pah-mRNA expression entry with Pah-mRNA is listed as “No change”. In addition, the PAH immunoreactive protein entry in assay [1] was “increase in PAH immunoreactive protein was observed”.
